According to patent publication US20230015823A1, “METHODS OF ADMINISTERING VOXELOTOR” (Global Blood Therapeutics, Inc., priority 2019, published 2023):
Read-outs that look alike come from different tables or passages of the source.

Assay: Phase 1 study of a single oral dose of voxelotor in subjects with hepatic impairment: whole blood and plasma PK
Assay type: in vivo, human
Conditions: for half-life / Tmax / AUC(0-t) / AUC(0-inf) / Cmax / Vd/F: human, po; for half-life: read-out: t1/2, mean (converted); for Tmax: read-out: tmax, median (converted); for AUC(0-inf): read-out: AUCinf, GM (converted); for Cmax: read-out: Cmax, GM (converted); for Vd/F: read-out: Vz/F, GM (converted)
Description: A Phase 1, open-label study was performed to characterize pharmacokinetics (PK) and safety of a single oral dose of voxelotor in subjects with hepatic impairment. The study was to assess the effects of mild, moderate, or severe hepatic impairment on the PK of a single oral dose of voxelotor, to evaluate the safety and tolerability of a single oral dose of voxelotor in subjects with mild, moderate, or severe hepatic impairment, as well as to establish potential dose adjustment guidance based upon the degree of hepatic insufficiency. […] This study was designed to assess the effects of mild, moderate, or severe hepatic impairment on the PK of a single oral dose of voxelotor. Routine safety assessments (AE monitoring, vital signs, physical examinations, clinical laboratory tests, and ECGs) were performed. Eligible subjects received a single oral dose of voxelotor 1500 mg (5×300-mg capsules) on Day 1 (for normal hepatic function, mild and moderate hepatic impairment). […] No food was allowed for at least 4 hours postdose. No water or any type of liquid was allowed for 1 hour before dosing through 1-hour postdose with the exception of water consumed for dosing. Adverse events and concomitant medication use were monitored throughout the study. Safety assessments, including physical examinations, vital signs assessments, 12-lead ECGs, and clinical laboratory tests, were performed. Whole blood and plasma concentrations of voxelotor were determined using validated assays. […] Louis, Mo.) and actual sampling times. The following PK parameters were determined. To assess the effect of hepatic impairment on the PK of voxelotor, a linear mixed-effect model was fitted to the log-transformed values of whole blood and plasma Cmax, AUCt, and AUCinf. The model included hepatic impairment group as a fixed effect and age and weight as covariates. Point estimates and 90% CIs for hepatic function group differences (mild, moderate, and severe hepatically-impaired subjects [test] versus the normal hepatic function subjects [control]) on the log scale were exponentiated to obtain estimates for GM ratios on the original scale. Voxelotor whole blood and plasma concentrations were measured using a validated liquid chromatography-mass spectrometry method. The lower limit of assay quantitation for voxelotor was 10.0 ng/mL for whole blood and 5.00 ng/mL in plasma.

[1] = whole blood, 600 mg, whole blood, severe hepatic impairment, 600 mg single oral dose
[2] = whole blood, 1500 mg, whole blood, mild hepatic impairment, 1500 mg single oral dose
[3] = whole blood, 1500 mg, whole blood, moderate hepatic impairment, 1500 mg single oral dose
[4] = whole blood, 1500 mg, whole blood, normal hepatic function, 1500 mg single oral dose
[5] = plasma, Mild (Test) vs Normal (Ref)
[6] = plasma, Moderate (Test) vs Normal (Ref)
[7] = plasma, Severe (Test, adjusted for dose) vs Normal (Ref)
[8] = severe hepatic impairment, Cmax adjusted for dose
[9] = whole blood, Mild (Test) vs Normal (Ref)
[10] = whole blood, Moderate (Test) vs Normal (Ref)
[11] = whole blood, Severe (Test, adjusted for dose) vs Normal (Ref)

Compound: CC(C)n1nccc1-c1ncccc1COc1cccc(O)c1C=O [voxelotor, 2-hydroxy-6-((2-(1-isopropyl-1H-pyrazol-5-yl)pyridin-3-yl)methoxy)benzaldehyde]
- half-life [1]: 111 h
- Tmax [1]: 24 h
- AUC(0-t) (whole blood, 1500 mg, whole blood, mild hepatic impairment, 1500 mg single oral dose, read-out: AUC0-96, GM (converted)): 5160 µg·h/mL
- AUC(0-inf) [2]: 8230 µg·h/mL
- AUC(0-t) (whole blood, 1500 mg, whole blood, mild hepatic impairment, 1500 mg single oral dose, read-out: AUCt, GM (converted)): 8190 µg·h/mL
- Cmax [2]: 73.6 µg/mL
- Vd/F [2]: 15.8 L
- half-life [2]: 60.1 h
- Tmax [2]: 24 h
- AUC(0-t) (whole blood, 1500 mg, whole blood, moderate hepatic impairment, 1500 mg single oral dose, read-out: AUC0-96, GM (converted)): 4660 µg·h/mL
- AUC(0-inf) [3]: 8360 µg·h/mL
- AUC(0-t) (whole blood, 1500 mg, whole blood, moderate hepatic impairment, 1500 mg single oral dose, read-out: AUCt, GM (converted)): 8320 µg·h/mL
- Cmax [3]: 63.8 µg/mL
- Vd/F [3]: 20.6 L
- half-life [3]: 79.5 h
- Tmax [3]: 24 h
- AUC(0-t) (whole blood, 1500 mg, whole blood, normal hepatic function, 1500 mg single oral dose, read-out: AUC0-96, GM (converted)): 4270 µg·h/mL
- AUC(0-inf) [4]: 6980 µg·h/mL
- AUC(0-t) (whole blood, 1500 mg, whole blood, normal hepatic function, 1500 mg single oral dose, read-out: AUCt, GM (converted)): 6950 µg·h/mL
- Cmax [4]: 60.9 µg/mL
- Vd/F [4]: 19.6 L
- Tmax [4]: 24 h
- plasma Cmax, higher than normal hepatic function (mild hepatic impairment): 18%
- whole blood Cmax, higher than normal hepatic function (mild hepatic impairment): 19%
- AUC in whole blood higher compared to normal hepatic function (mild hepatic impairment (Child Pugh A)): 14%
- plasma Cmax, higher than normal hepatic function (moderate hepatic impairment): 51%
- whole blood Cmax, higher than normal hepatic function (moderate hepatic impairment): 6%
- AUC in whole blood higher compared to normal hepatic function (moderate hepatic impairment (Child Pugh B)): 15%
- AUCinf, Ratio of Geometric LS Mean (Test to Reference) [5]: 1.093
- AUCt, Ratio of Geometric LS Mean (Test to Reference) [5]: 1.089
- Cmax, Ratio of Geometric LS Mean (Test to Reference) [5]: 1.177
- AUCinf, Ratio of Geometric LS Mean (Test to Reference) [6]: 1.180
- AUCt, Ratio of Geometric LS Mean (Test to Reference) [6]: 1.207
- Cmax, Ratio of Geometric LS Mean (Test to Reference) [6]: 1.510
- AUCinf, Ratio of Geometric LS Mean (Test to Reference) [7]: 1.932
- AUCt, Ratio of Geometric LS Mean (Test to Reference) [7]: 1.907
- Cmax, Ratio of Geometric LS Mean (Test to Reference) [7]: 1.445
- CL/F, GM (plasma, mild hepatic impairment, 1500 mg single oral dose): 76.69 L/h
- CL/F, GM (plasma, moderate hepatic impairment, 1500 mg single oral dose): 56.14 L/h
- CL/F, GM (plasma, normal hepatic function, 1500 mg single oral dose): 77.50 L/h
- CL/F, GM (plasma, severe hepatic impairment, 600 mg single oral dose): 73.81 L/h
- AUC in whole blood higher compared to normal hepatic function (severe hepatic impairment (Child Pugh C)): 90%
- plasma Cmax, higher than normal hepatic function [8]: 45%
- whole blood Cmax, higher than normal hepatic function [8]: 39%
- AUCinf, Ratio of Geometric LS Mean (Test to Reference) [9]: 1.141
- AUCt, Ratio of Geometric LS Mean (Test to Reference) [9]: 1.140
- Cmax, Ratio of Geometric LS Mean (Test to Reference) [9]: 1.187
- AUCinf, Ratio of Geometric LS Mean (Test to Reference) [10]: 1.151
- AUCt, Ratio of Geometric LS Mean (Test to Reference) [10]: 1.149
- Cmax, Ratio of Geometric LS Mean (Test to Reference) [10]: 1.056
- AUCinf, Ratio of Geometric LS Mean (Test to Reference) [11]: 1.902
- AUCt, Ratio of Geometric LS Mean (Test to Reference) [11]: 1.867
- Cmax, Ratio of Geometric LS Mean (Test to Reference) [11]: 1.391
- CL/F, GM (whole blood, mild hepatic impairment, 1500 mg single oral dose): 70.182 L/h
- CL/F, GM (whole blood, moderate hepatic impairment, 1500 mg single oral dose): 60.179 L/h
- CL/F, GM (whole blood, normal hepatic function, 1500 mg single oral dose): 70.215 L/h
- CL/F, GM (whole blood, severe hepatic impairment, 600 mg single oral dose): 70.110 L/h
